Data published in patent US10501493B2, “Broad spectrum antibiotics” (priority 2011, dated 2019).
≈ marks a conversion by molar mass, not a printed value. Where two headings read alike, the source gives them in different places.

Tests used:
[1] = tested on: E. coli MIG1655 LepB(P84L); test: In vitro antimicrobial activity, MIC by broth micro-dilution; type: cell-based; conditions: Escherichia coli
In short: (§1)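 CLSI broth micro-dilution MIC against two-fold serial compound dilutions. Inoculum came from colonies grown 24 h at 35° C. or 28° C., suspended in cation-adjusted Mueller Hinton broth at 1*10^7 CFU/ml, of which 5 μl was added per 100 μl well. LepB(P84L) is a proline-mutant SPase strain with heightened arylomycin susceptibility.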

[2] = tested on: P. aeruginosa PA01 LepB(P84L); test: as above; type: cell-based; conditions: Pseudomonas aeruginosa
In short: as §1

[3] = tested on: S. epidermidis RP62A SpsIB(S29P); test: as above; type: cell-based; conditions: Staphylococcus epidermidis
[4] = tested on: S. epidermidis RP62A SpsIB(S31P); test: as above; type: cell-based; conditions: Staphylococcus epidermidis
S. epidermidis RP62A = test: as above; type: cell-based; conditions: Staphylococcus epidermidis; S. epidermidis RP62A; read-out: MIC
S. pneumoniae D39 = test: as above; type: cell-based; conditions: Streptococcus pneumoniae; S. pneumoniae D39; read-out: MIC
E. coli SPase = target: T1, E. coli SPase (Escherichia coli, UniProt P00803); test: Steady state binding constant (Kd) determination by fluorescence increase
T1 construct: Full length His-tagged E. coli SPase proteins were expressed in E. coli BL21(DE3); His-tag; made in house; host or cells: E. coli BL21(DE3)
Procedure: (§2) Full length His-tagged E. coli SPase proteins were expressed in E. coli BL21(DE3) containing the plasmid pET23-lepB, P. A. Smith et al. Chem Biol 2010, 1223-1231. Briefly, saturated overnight cultures grown in 20 ml of Luria-Bertani medium supplemented with ampicillin were subcultures into 1.5 L of Luria-Bertani, and shaken at 37° C. until an optical density at 600 nm of 0.4-0.5 was achieved. Protein expression was induced with Isopropyl β-D-1-thiogalactopyranoside (ITPG) at a final concentration of […], and purified using nickel affinity chromatography. Full length His-tagged S. aureus SPase protein was expressed similarly from E. coli BL21(DE3) containing the plasmid pCDF1-SaSpsB or pCDF1-SaSpsB(P29S) and purified similarly to the E. coli protein with the following exceptions. SPase protein was solubilized using 300 mM NaCl, 20 mM Tris pH 8.06, 5 mM Imidazole, 10% glycerol, 1% Triton X-100, prior to purification in Ni-NTA Superflow resin and resin bound protein was washed in a similar buffer containing 1% Elugent in place of Triton X-100 prior to protein eluted in wash buffer supplemented with 300 mM imidazole. Protein purify was judged to exceed 95% by visual inspection of SDS-PAGE followed by Comassie staining. All protein concentrations were determined by BCA assay.
(§3) Steady state binding constants (Kds) of compounds were determined by measuring an increase in fluorescence (λex=280 nm, λem=405 nm) that occurs upon binding to E. coli or S. aureus SPase protein. Two-fold serial dilutions of compounds were prepared in 100% DMSO, and compounds were diluted into binding buffer consisting of 100 mM NaCl, 20 mM Tris-HCl pH 7.4, 1 mM EDTA, 1% n-octyl-3-glucopyranoside (Anatrace), and 10% glycerol, with the final DMSO concentration equal to 1%. 70 μl of the resulting solutions containing various concentrations of compound in binding buffer were aliquoted into triplicate wells of a black polystyrene 384-well plate. 5 μl of blank solution or E. coli or S. aureus protein at concentrations of 750 or 3750 nM respectively, were added to each set of wells for a given inhibitor concentration. Plates were incubated for 14 hours and fluorescence read on an EnVision Multilable plate reader (Perkin Elmer™). Differences in fluorescence values between wells with and without protein were determined and background corrected for protein auto fluorescence. The corrected fluorescence difference data was fit to the quadratic equilibrium binding curve using the non-linear regression analysis software Solver (Frontline Systems®) run in Excel 2010, (Microsoft®), using experimentally determined quantum efficiency constants to convert fluorescence into nanomoles of protein/compound complex.

S. aureus SPase = target: T2, S. aureus SPase (Staphylococcus aureus, UniProt P0A070); test: as above
T2 construct: Full length His-tagged S. aureus SPase protein was expressed similarly; His-tag; made in house; host or cells: E. coli BL21(DE3)
Procedure: as §2, §3

[5] = tested on: S. aureus NCTC-8325 SpsB(P295); test: In vitro antimicrobial activity, MIC by broth micro-dilution; type: cell-based; conditions: Staphylococcus aureus, NCTC8325
C. glutamicum DSM 44475 = test: as above; type: cell-based; conditions: Corynebacterium glutamicum, DSM44475, read-out: MIC
S. agalactiae ATCC 13813 = test: as above; type: cell-based; conditions: Streptococcus agalactiae, ATCC13813, read-out: MIC
S. agalactiae COH-1 = test: as above; type: cell-based; conditions: Streptococcus agalactiae, COH1
S. aureus ATCC 29213 = test: as above; type: cell-based; conditions: Staphylococcus aureus, ATCC29213, read-out: MIC
[6] = tested on: S. epidermidis ATCC 12228; test: as above; type: cell-based; conditions: Staphylococcus epidermidis, ATCC12228, read-out: MIC
S. pneumoniae R800 = test: as above; type: cell-based; conditions: Streptococcus pneumoniae, read-out: MIC
In short: as §1

S. pyogenes ATCC 19615 = test: as above; type: cell-based; conditions: Streptococcus pyogenes, ATCC19615, read-out: MIC
S. pyogenes M15448 = test: as above; type: cell-based; conditions: Streptococcus pyogenes
In short: as §1

R. equi DSM 6939 = test: as above; type: cell-based; conditions: Rhodococcus (subgen. Prescottella) equi, DSM6939, read-out: MIC
In short: as §1

[7] = S. agalactiae COH-1, read-out: MIC
[8] = S. pyogenes M15448, read-out: MIC

| Compound | MIC [1] | MIC [2] | MIC [3] | MIC [4] | MIC (S. epidermidis RP62A) | MIC (S. pneumoniae D39) | Kd (E. coli SPase) | Kd (S. aureus SPase) | MIC [5] | MIC (C. glutamicum DSM 44475) | MIC (S. agalactiae ATCC 13813) | MIC (S. agalactiae COH-1) | MIC (S. aureus ATCC 29213) | MIC [6] | MIC (S. pneumoniae R800) | MIC (S. pyogenes ATCC 19615) | MIC (S. pyogenes M15448; M15448) | MIC (R. equi DSM 6939) | MIC (S. agalactiae COH-1; [7]) | MIC (S. pyogenes M15448; [8]) |
| --- | --- | --- | --- | --- | --- | --- | --- | --- | --- | --- | --- | --- | --- | --- | --- | --- | --- | --- | --- | --- |
| CCCCCCCCCCCCCCCC(=O)N(C)[C@H](CO)C(=O)N[C@H](C)C(=O)NCC(=O)N(C)[C@@H]1C(=O)N[C@@H](C)C(=O)N[C@H](C(=O)N(C)C)Cc2ccc(O)c(c2)-c2cc1ccc2O [Compound 13] | 16 µg/mL (≈ 17.6 µM) | > 64 µg/mL | > 64 µg/mL | > 64 µg/mL | 64 µg/mL (≈ 70.5 µM) | > 64 µg/mL | 2000 nM | > 100000 nM | – | – | – | – | – | – | – | – | – | – | – | – |
| CCCCCCCCCCCCCCCC(=O)N(C)[C@H](CO)C(=O)N[C@H](C)C(=O)NCC(=O)N(C)[C@@H]1C(=O)N[C@@H](C)C(=O)N[C@H](C(N)=O)Cc2ccc(O)c(c2)-c2cc1ccc2O [Compound 11] | 4 µg/mL (≈ 4.54 µM) | > 64 µg/mL | > 64 µg/mL | > 64 µg/mL | 2 µg/mL (≈ 2.27 µM) | 64 µg/mL (≈ 72.7 µM) | 100 nM | 2100 nM | 32 µg/mL (≈ 36.4 µM) | – | – | – | – | – | – | – | – | – | – | – |
| CCCCCCCCCCCCCCCC(=O)N(C)[C@H](CO)C(=O)N[C@H](C)C(=O)NCC(=O)N(C)[C@@H]1C(=O)N[C@@H](C)C(=O)N[C@H](C(=O)NS(C)(=O)=O)Cc2ccc(O)c(c2)-c2cc1ccc2O [Compound 22] | 16 µg/mL (≈ 16.7 µM) | > 64 µg/mL | > 64 µg/mL | > 64 µg/mL | 2 µg/mL (≈ 2.09 µM) | 16 µg/mL (≈ 16.7 µM) | 1000 nM | 19000 nM | > 64 µg/mL | 8 µg/mL (≈ 8.35 µM) | 32 µg/mL (≈ 33.4 µM) | > 64 µg/mL | > 64 µg/mL | > 64 µg/mL | 16 µg/mL (≈ 16.7 µM) | 16 µg/mL (≈ 16.7 µM) | 16 µg/mL (≈ 16.7 µM) | – | – | – |
| CCCCCCCCCCCCCCCC(=O)N(C)[C@H](CO)C(=O)N[C@H](C)C(=O)NCC(=O)N(C)[C@@H]1C(=O)N[C@@H](C)C(=O)N[C@H](C(=O)N[C@@H](C)C(=O)N2CCCC2C(N)=O)Cc2ccc(O)c(c2)-c2cc1ccc2O (stereo partly drawn) [Compound 14] | 16 µg/mL (≈ 15.3 µM) | > 64 µg/mL | > 64 µg/mL | > 64 µg/mL | 2 µg/mL (≈ 1.91 µM) | 8 µg/mL (≈ 7.63 µM) | 2800 nM | 600 nM | 8 µg/mL (≈ 7.63 µM) | – | – | – | – | – | – | – | – | – | – | – |
| CCCCCCCCCCCCCCCC(=O)N(C)[C@H](CO)C(=O)N[C@H](C)C(=O)NCC(=O)N(C)[C@@H]1C(=O)N[C@@H](C)C(=O)N[C@H](C(=O)NCC(N)=O)Cc2ccc(O)c(c2)-c2cc1ccc2O [Compound 26] | 8 µg/mL (≈ 8.54 µM) | > 64 µg/mL | > 64 µg/mL | > 64 µg/mL | 4 µg/mL (≈ 4.27 µM) | 8 µg/mL (≈ 8.54 µM) | – | – | > 64 µg/mL | 32 µg/mL (≈ 34.1 µM) | 16 µg/mL (≈ 17.1 µM) | – | > 64 µg/mL | 32 µg/mL (≈ 34.1 µM) | 16 µg/mL (≈ 17.1 µM) | 8 µg/mL (≈ 8.54 µM) | – | 64 µg/mL (≈ 68.3 µM) | > 64 µg/mL | > 64 µg/mL |
| CCCCCCCCCCCCCCCC(=O)N(C)[C@H](CO)C(=O)N[C@H](C)C(=O)NCC(=O)N(C)[C@@H]1C(=O)N[C@@H](C)C(=O)N[C@H](C(=O)N[C@@H](C)C(=O)N2CCC[C@H]2C(=O)O)Cc2ccc(O)c(c2)-c2cc1ccc2O [Compound 25] | 8 µg/mL (≈ 7.62 µM) | > 64 µg/mL | 64 µg/mL (≈ 61 µM) | > 64 µg/mL | 4 µg/mL (≈ 3.81 µM) | 8 µg/mL (≈ 7.62 µM) | – | – | > 64 µg/mL | 64 µg/mL (≈ 61 µM) | 8 µg/mL (≈ 7.62 µM) | – | 64 µg/mL (≈ 61 µM) | 16 µg/mL (≈ 15.2 µM) | 8 µg/mL (≈ 7.62 µM) | 16 µg/mL (≈ 15.2 µM) | – | > 64 µg/mL | > 64 µg/mL | 16 µg/mL (≈ 15.2 µM) |
| CCCCCCCCCCCCCCCC(=O)N(C)[C@H](CO)C(=O)N[C@H](C)C(=O)NCC(=O)N(C)[C@@H]1C(=O)N[C@@H](C)C(=O)N[C@H](C(=O)NC)Cc2ccc(O)c(c2)-c2cc1ccc2O [Compound 12] | 8 µg/mL (≈ 8.95 µM) | > 64 µg/mL | 64 µg/mL (≈ 71.6 µM) | > 64 µg/mL | 2 µg/mL (≈ 2.24 µM) | > 64 µg/mL | 240 nM | 600 nM | – | – | – | – | – | – | – | – | – | – | – | – |
| CCCCCCCCCCCCCCCC(=O)N(C)[C@H](CO)C(=O)N[C@H](C)C(=O)NCC(=O)N(C)[C@@H]1C(=O)N[C@@H](C)C(=O)N[C@H](C(=O)NCC(=O)N2CCCC2C(N)=O)Cc2ccc(O)c(c2)-c2cc1ccc2O (stereo partly drawn) [Compound 27] | 8 µg/mL (≈ 7.73 µM) | > 64 µg/mL | > 64 µg/mL | > 64 µg/mL | 8 µg/mL (≈ 7.73 µM) | 16 µg/mL (≈ 15.5 µM) | – | – | > 64 µg/mL | 32 µg/mL (≈ 30.9 µM) | 32 µg/mL (≈ 30.9 µM) | – | > 64 µg/mL | 32 µg/mL (≈ 30.9 µM) | 32 µg/mL (≈ 30.9 µM) | 32 µg/mL (≈ 30.9 µM) | – | > 64 µg/mL | 32 µg/mL (≈ 30.9 µM) | 32 µg/mL (≈ 30.9 µM) |
